Measured values published in patent EP4782453A1 (Beyang Therapeutics Co., Ltd., priority 2023, dated 2025).
Where two headings read alike, the source gives them in different places.

How the values were obtained:
[1] = system: MOLM-13 (carrying MLL-AF9); assay: Inhibition of proliferation of human tumor cells (Alamar Blue, 7 days), MOLM-13; type: cell-based; conditions: Homo sapiens, MOLM-13 cells (carrying MLL-AF9), method calls the value GI50
Text: Experimental Example 2: Evaluation of Inhibitory Activity of Compounds Against Proliferation of Human Tumor Cells
• Human acute lymphoblastic leukemia cells MV-4-11, purchased from American Type Culture Collection, Catalog Number: CRL-9591; • Human acute myeloid leukemia cells MOLM-13, purchased from COBIOER BIOSCIENCES CO., LTD, Catalog Number: CBP60678; • Human acute myeloid leukemia cells KG-1a, purchased from American Type Culture Collection, Catalog Number: CCL-246.1; • Inverted Microscope, purchased from Olympus Tokyo; • Countess™ Automated Cell Counter, purchased from Invitrogen, Model: C10281; and • Multilabel Reader, purchased from Bio-Tek, Model: Synergy HT.
MV-4-11 cells were cultured in an IMDM medium containing 10% fetal bovine serum, KG-a cells were cultured in an IMDM medium containing 20% fetal bovine serum, or MOLM-13 cells were cultured in an RPMI-1640 medium containing 20% fetal bovine serum, each supplemented with 100 U·mL^-1 penicillin and 100 µg·mL^-1 streptomycin. These cells were cultured at 37°C with 5% CO2. The suspensions of individual cell lines were prepared in their respective media and seeded into 96-well plates at a density of 4,000 cells/well for MV-4-11 and MOLM-13 cells, or 3,000 cells/well for KG-1a cells. On the day of the experiment, a compound stock solution was diluted in a 3-fold or 4-fold gradient using DMSO. Each gradient-diluted stock solution was then further diluted 250-fold with a complete medium to prepare a series of working solutions at different concentrations. Subsequently, 100 µL of working solution (containing a 2-fold concentration series of the test compound) was added to each well, with duplicate wells set up for each concentration.
Seven days after compound addition (on Day 7), an Alamar Blue assay reagent (MCE, HY-111391 / CS-0040317) was added to measure the fluorescence intensity in each well. Wells containing the cells in the growth medium supplemented with 0.1% DMSO (Day 7) served as high-read control wells. The readouts from the wells containing the cells in the growth medium supplemented with 0.1% DMSO on the day of compound addition (Day 0) served as low-reading control well. GraphPad Prism software was used to calculate the concentration required to inhibit 50% of cell proliferation (GI50), which serves as a cell proliferation inhibition activity index.

Menin-MLL = biological target: T1, Menin-MLL (Homo sapiens, UniProt O00255); assay: Inhibitory activity against Menin-MLL binding (fluorescence polarization); conditions: 150 nM His-Menin, 15 nM FITC-MLL, 25°C for 60 min
T1 construct: His-Menin (M1-L615 end); purchased BIORTUS BP9210
T1 sequence (O00255 1-615 isoform O00255-1): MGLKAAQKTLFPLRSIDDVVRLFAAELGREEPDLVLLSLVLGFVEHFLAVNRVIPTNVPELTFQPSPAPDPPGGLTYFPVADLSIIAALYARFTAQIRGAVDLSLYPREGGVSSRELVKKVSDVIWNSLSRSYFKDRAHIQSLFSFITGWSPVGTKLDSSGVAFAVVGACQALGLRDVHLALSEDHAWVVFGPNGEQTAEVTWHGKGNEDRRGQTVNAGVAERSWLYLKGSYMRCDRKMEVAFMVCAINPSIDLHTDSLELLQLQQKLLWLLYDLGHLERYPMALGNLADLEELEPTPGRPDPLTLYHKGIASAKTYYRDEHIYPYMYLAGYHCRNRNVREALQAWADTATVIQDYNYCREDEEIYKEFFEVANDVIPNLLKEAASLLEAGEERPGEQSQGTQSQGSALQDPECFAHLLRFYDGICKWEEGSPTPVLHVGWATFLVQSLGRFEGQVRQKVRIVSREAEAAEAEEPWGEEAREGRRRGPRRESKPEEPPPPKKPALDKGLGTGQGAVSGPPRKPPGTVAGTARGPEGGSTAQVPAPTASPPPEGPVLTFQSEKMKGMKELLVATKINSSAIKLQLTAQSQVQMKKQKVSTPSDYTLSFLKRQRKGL
Method in brief: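 Fluorescence polarization competition: compound and 150 nM His-tagged menin (residues M1-L615) sit 15 min at 25 °C in pH 7.5 HEPES buffer with NaCl, DTT and BSA; 15 nM FITC-labelled MLL peptide then binds for 60 min. IC50 fitted sigmoidally from mP values, duplicate wells.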

[2] = fluorescence polarization, read-out: Menin-MLL IC50

| IC50 ([1]; 168 h) [nM] | IC50 (Menin-MLL; [2]) [nM] | Compound | IC50 ([1]; MOLM-13, 168 h) [nM] | IC50 (Menin-MLL; Menin-MLL IC50, fluorescence polarization) [nM] |
| --- | --- | --- | --- | --- |
| 66 | 6 | CCN1CCN(CCC[C@H](C(C)C)N2CC(c3cc(-c4ccc(F)cc4C(=O)N4CCOC[C@H]4C)c4cnn(C)c4c3)C2)CC1 [Example 359] |  |  |
| 3.3 | 5.2 | Cc1nc(F)c2c(-c3ccc(F)cc3C(=O)N3CCOC[C@H]3C)cc(C3CN([C@H](CCCN4CCN(CCF)CC4)C(C)C)C3)cn12 [Example 361] |  |  |
| 14 | 8.5 | Cc1nc(F)c2c(-c3ccc(F)cc3C(=O)N3CCOC[C@H]3C)cc(C3CN([C@H](CCCN4CCN(S(C)(=O)=O)CC4)C(C)C)C3)cn12 [Example 365] |  |  |
| 3 | 3.8 | Cc1nc(F)c2c(-c3ccc(F)cc3C(=O)N3CCOC[C@H]3C)cc(C3CN([C@H](CCCN4CC5(COC5)C4)C(C)C)C3)cn12 [Example 369] |  |  |
| 6 | 6.4 | Cc1nc(F)c2c(-c3ccc(F)cc3C(=O)N3CCOC[C@H]3C)cc(C3CN(C(CC[C@H]4COCCN4)C(C)C)C3)cn12 (stereo partly drawn) [Example 373, (3R)-4-{5-fluoro-2-[1-fluoro-3-methyl-6-(1-{4-methyl-1-[(3S)-morpholin-3-yl]pentan-3-yl}azacyclobutan-3-yl)imidazo[1,5-a]pyridin-8-yl]benzoyl}-3-methylmorpholine] |  |  |
| 4.1 | 2.7 | Cc1nc(F)c2c(-c3ccc(F)cc3C(=O)N3CCOC[C@H]3C)cc(C3CN([C@H](CCCN4C5CC4CN(C)C5)C(C)C)C3)cn12 [Example 384] |  |  |
| 8.1 | 4.7 | Cc1ncc2c(-c3ccc(F)cc3C(=O)N3CCOC[C@H]3C)cc(C3CN([C@H](CCCN4CCN(CC(F)(F)F)CC4)C(C)C)C3)cn12 [Example 385] |  |  |
| 12 | 3.7 | CCN(C(=O)c1cc(F)ccc1-c1cc(C2CN([C@H](CCCN3CCN(CCO)CC3)C(C)C)C2)cc2c1cnn2C)C(C)C [Example 400-2] |  |  |
| 29 | 3.7 | CCN(C(=O)c1cc(F)ccc1-c1cc(C2CN([C@H](CCCN3CCC(OCCO)CC3)C(C)C)C2)cc2c1cnn2C)C(C)C [Example 401-2] |  |  |
| 38 | 10 | CCN(C(=O)c1cc(F)ccc1-c1cc(C2CN([C@@H](CN3CCN(C)CC3)C(C)C)C2)cn2c(C)ncc12)C(C)C [Example 403-2, N-ethyl-5-fluoro-2-(3-methyl-6-{1-[(2R)-3-methyl-1-(4-methylpiperazin-1-yl)butan-2-yl]azacyclobutan-3-yl}imidazo[1,5-a]pyridin-8-yl)-N-(isopropyl)benzamide] |  |  |
| 7.2 | 1.6 | CCN(C(=O)c1cc(F)ccc1-c1cc(C2CN([C@H](CCCN3CCC(NC(C)=O)CC3)C(C)C)C2)cc2c1cnn2C)C(C)C [Example 405] |  |  |
| 37 | 7 | CCN(C(=O)c1cc(F)ccc1-c1cc(C2CN([C@H](CCCN3CCC(S(C)(=O)=O)CC3)C(C)C)C2)cc2c1cnn2C)C(C)C [Example 406] |  |  |
| 31 | 4 | CCN(C(=O)c1cc(F)ccc1-c1cc(C2CN([C@H](CCCN3CC4(C3)CN(C(C)=O)C4)C(C)C)C2)cc2c1cnn2C)C(C)C [Example 409] |  |  |
| 12 | 2.7 | CCN(C(=O)c1cc(F)ccc1-c1cc(C2CN([C@H](CCCN3CCC(NS(=O)(=O)CC)CC3)C(C)C)C2)cc2c1cnn2C)C(C)C [Example 411] |  |  |

More lines, now with the values behind:

| Compound | IC50 ([1]; 168 h) [nM] | IC50 (Menin-MLL; [2]) [nM] | IC50 ([1]; MOLM-13, 168 h) [nM] | IC50 (Menin-MLL; Menin-MLL IC50, fluorescence polarization) [nM] |
| --- | --- | --- | --- | --- |
| Cc1nc(F)c2c(-c3ccc(F)cc3C(=O)N3CCOC[C@H]3C)cc(C3CN([C@H](CCCN4CC5CC(C4)N5C)C(C)C)C3)cn12 [Example 349] | 16.5 | 4 |  |  |
| Cc1nc(F)c2c(-c3ccc(F)cc3C(=O)N3CCOC[C@H]3C)cc(C3CN([C@H](CCCN4CCN(CC(F)F)CC4)C(C)C)C3)cn12 [Example 362] |  |  | 2.8 | 4.6 |
| Cc1ncc2c(-c3ccc(F)cc3C(=O)N3CCOC[C@H]3C)cc(C3CN([C@H](CCCN4CCN(CCF)CC4)C(C)C)C3)cn12 [Example 363] | 20 | 6.2 |  |  |
| Cc1ncc2c(-c3ccc(F)cc3C(=O)N3CCOC[C@H]3C)cc(C3CN([C@H](CCCN4CCN(CC(F)F)CC4)C(C)C)C3)cn12 [Example 364] | 3.9 | 5.1 |  |  |
| CC(=O)N1CC2(CN(CCC[C@H](C(C)C)N3CC(c4cc(-c5ccc(F)cc5C(=O)N5CCOC[C@H]5C)c5c(F)nc(C)n5c4)C3)C2)C1 [Example 370, 1-{6-[(4R)-4-[3-(1-fluoro-8-{4-fluoro-2-[(3R)-3-methylmorpholin-4-carbonyl]phenyl}-3-methylimidazo[1,5-a]pyridin-6-yl)azacyclobutan-1-yl]-5-methylhexyl]-2,6-diazaspiro[3.3]heptan-2-yl}ethan-1-one] | 4.2 | 3.8 |  |  |
| CCN1CCN(CCC[C@H](C(C)C)N2CC(c3cc(-c4ccc(F)cc4C(=O)N(CC)C(C)C)c4cnc(C)n4c3)C2)CC1 [Example 377] | 1.7 | 2 |  |  |
| CCN(C(=O)c1cc(F)ccc1-c1cc(C2CN([C@H](CCCN3C4CCC3CN(C(C)=O)C4)C(C)C)C2)cn2c(C)ncc12)C(C)C [Example 378, 2-(6-{1-[(3R)-6-{3-acetyl-3,8-diazabicyclo[3.2.1]oct-8-yl}-2-methylhexan-3-yl]azacyclobutan-3-yl}-3-methylimidazo[1,5-a]pyridin-8-yl)-N-ethyl-5-fluoro-N-(isopropyl)benzamide] | 5.8 | 2.8 |  |  |
| CCN(C(=O)c1cc(F)ccc1-c1cc(C2CN([C@H](CCCN3C4CC3CN(C(C)=O)C4)C(C)C)C2)cn2c(C)ncc12)C(C)C [Example 387] | 8.9 | 2.5 |  |  |
| CCN(C(=O)c1cc(F)ccc1-c1cc(C2CN([C@H](CCCN3CC4(C3)CN(C(C)=O)C4)C(C)C)C2)cn2c(C)ncc12)C(C)C [Example 393] | 16 | 2.2 |  |  |
| CCN(C(=O)c1cc(F)ccc1-c1cc(C2CN([C@H](CCCN3CCN(CCF)CC3)C(C)C)C2)cn2c(C)ncc12)C(C)C [Example 395] | 6.1 | 2 |  |  |
| CCN(C(=O)c1cc(F)ccc1-c1cc(C2CN([C@H](CCCN3CCC(OC)CC3)C(C)C)C2)cc2c1cnn2C)C(C)C [Example 399-2, N-ethyl-5-fluoro-2-(6-{1-[(3R)-6-(4-methoxypiperidin-1-yl)-2-methylhexan-3-yl]azacyclobutan-3-yl}-1-methyl-1H-indazol-4-yl)-N-(isopropyl)benzamide] | 25 | 3.3 |  |  |
| CCN(C(=O)c1cc(F)ccc1-c1cc(C2CN([C@H](CCCN3CCC(S(C)(=O)=O)CC3)C(C)C)C2)cn2c(C)ncc12)C(C)C [Example 404] | 8.1 | 2.3 |  |  |
| CCN(C(=O)c1cc(F)ccc1-c1cc(C2CN([C@H](CCCN3CCC(NS(=O)(=O)CC)CC3)C(C)C)C2)cn2c(C)ncc12)C(C)C [Example 408, 2-(6-{1-[(3R)-6-(4-ethanesulfonamidopiperidin-1-yl)-2-methylhexan-3-yl]azacyclobutan-3-yl}-3-methylimidazo[1,5-a]pyridin-8-yl)-N-ethyl-5-fluoro-N-(isopropyl)benzamide] | 4.2 | 1.7 |  |  |
| CCN(C(=O)c1cc(F)ccc1-c1cc(C2CN([C@H](CCCN3CCN(CCF)CC3)C(C)C)C2)cc2c1cnn2C)C(C)C [Example 410] | 37 | 5.8 |  |  |
